The record followed here is patent publication US20240366542A1, “S[…] SEROTONIN RECEPTORS” (ATAI Therapeutics, Inc., priority 2022, published 2024).

Holding throughout (type): cell-based
For experiment [1], the target named is T1, 5-HT2A receptor (Homo sapiens, UniProt P28223). The experiment can be described thus: Calcium mobilization (Ca++ flux) assay, agonist mode, 5-HT2A. Particulars: for 5-HT2A receptor, Ca++ Flux % activation @30 μM: 30 μM compound, relative to MAX control 0.1 μM serotonin; for EC50: agonist mode, FLIPR calcium mobilization. The protocol: (§1) The Calcium No-Wash^PLUS assay monitors the activation of a GPCR via Gq secondary messenger signaling in a live cell, non-imaging assay format. Calcium mobilization in PathHunter® cell lines or other cell lines stably expressing Gq-coupled GPCRs is monitored using a calcium-sensitive dye that is loaded into cells. GPCR activation by a compound result in the release of calcium from intracellular stores and an increase in dye fluorescence that is measured in real-time. Cell lines expressing the GPCR of interest were expanded from freezer stocks according to standard procedures. Cells were seeded in a total volume of 20 μL into black-walled, clear-bottom, Poly-D-lysine coated 384-well microplates and incubated at 37° C. for the appropriate time prior to testing. Assays were performed in 1×Dye Loading Buffer consisting of 1× Dye, 1× Additive A and 2.5 mM Probenecid in HBSS/20 mM Hepes. Probenicid was prepared fresh. Cells were loaded with dye prior to testing. Media was aspirated from cells and replaced with 20 μL Dye Loading Buffer. Cells were incubated for 30-60 minutes at 37° C. For agonist determination, cells were incubated with sample to induce response. After dye loading, cells were removed from the incubator and 10 μL HBSS/20 mM Hepes was added. 3× vehicle was included in the buffer when performing agonist dose curves to define the EC80 for subsequent antagonist assays. Cells were incubated for 30 minutes at room temperature in the dark to equilibrate plate temperature. Intermediate dilution of sample stocks was performed to generate 4× sample in assay buffer. Compound agonist activity was measured on a FLIPR Tetra (MDS). Calcium mobilization was monitored for 2 minutes and 10 μL 4× sample in HBSS/20 mM Hepes was added to the cells 5 seconds into the assay. Compound activity data was analyzed using CBIS data analysis suite (ChemInnovation, CA). For agonist mode assays, percentage activity is calculated using the following formula:
% Activity=100%×(mean RFU of test sample−mean RFU of vehicle control)/(mean MAX RFU control ligand−mean RFU of vehicle control).
In these studies, the MAX RFU was generated by using 0.1 μM serotonin for the calcium mobilization assay.
On the technique in general: Calcium flux is commonly read through the fluorescence of an indicator in the cells.

The target of experiment [2] is T1, 5-HT2A receptor. Put plainly: PathHunter β-Arrestin assay, agonist mode, 5-HT2A. The protocol: The PathHunter® β-Arrestin assay monitors the activation of a GPCR in a homogenous, non-imaging assay format using a technology developed by DiscoverX called Enzyme Fragment Complementation (EFC) with β-galactosidase (β-Gal) as the functional reporter. […] EA is fused to β-Arrestin and PK is fused to the GPCR of interest. When the GPCR is activated and β-Arrestin is recruited to the receptor, ED and EA complementation occurs, restoring β-Gal activity which is measured using chemiluminescent PathHunter® Detection Reagents. PathHunter cell lines (DiscoveRx Eurofins) were expanded from freezer stocks according to standard procedures. Cells were seeded in a total volume of 20 μL into white walled, 384-well microplates and incubated at 37° C. for the appropriate time prior to testing. For agonist determination, cells were incubated with sample to induce response. Intermediate dilution of sample stocks was performed to generate 5× sample in assay buffer. 5 μL of 5× sample was added to cells and incubated at 37° C. or room temperature for 90 to 180 minutes. Vehicle concentration was 1%. β-Arrestin assay signal was generated through a single addition of 12.5 or 15 μL (50% v/v) of PathHunter Detection reagent cocktail, followed by a one-hour incubation at room temperature. Microplates were read following signal generation with a PerkinElmer Envision™ instrument for chemiluminescent signal detection. Compound activity was analyzed using CBIS data analysis suite (ChemInnovation, CA). For agonist mode assays, percentage activity was calculated using the following formula:
% Activity=100%×(mean RLU of test sample−mean RLU of vehicle control)/(mean MAX control ligand−mean RLU of vehicle control).
In these studies, the MAX control ligand response was generated using 1-10 μM serotonin.

A further experiment deals with T2, 5-HT2C receptor (Homo sapiens, UniProt P28335).
T2 sequence (P28335 33-458): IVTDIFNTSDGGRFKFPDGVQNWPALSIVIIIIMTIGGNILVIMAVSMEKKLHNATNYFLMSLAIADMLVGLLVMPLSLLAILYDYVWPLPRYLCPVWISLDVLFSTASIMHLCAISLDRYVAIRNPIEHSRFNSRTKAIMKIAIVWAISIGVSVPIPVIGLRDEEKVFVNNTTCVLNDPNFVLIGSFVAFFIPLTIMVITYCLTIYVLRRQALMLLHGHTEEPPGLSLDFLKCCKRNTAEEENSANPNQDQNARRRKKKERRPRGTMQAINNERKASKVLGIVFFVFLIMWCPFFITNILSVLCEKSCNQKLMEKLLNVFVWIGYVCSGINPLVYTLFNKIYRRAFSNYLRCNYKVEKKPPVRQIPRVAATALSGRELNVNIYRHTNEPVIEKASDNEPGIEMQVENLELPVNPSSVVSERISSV
The experiment can be described thus: Calcium mobilization (Ca++ flux) assay, agonist mode, 5-HT2C. Here is the method:
as §1, with “Media was aspirated from cells and replaced with 20 μL Dye Loading Buffer. Cells were incubated for 30-60 minutes at 37° C. For agonist determination, cells were incubated with sample to induce response. After dye loading, cells were removed from the incubator and 10 μL HBSS/20 mM Hepes was added. 3× vehicle was included in the buffer when performing agonist dose curves to define the EC80 for subsequent antagonist assays. Cells were incubated for 30 minutes at room temperature in the dark to equilibrate plate temperature. Intermediate dilution of sample stocks was performed to generate 4× sample in assay buffer.” left out, “formula: […]” for “formula:”

In another experiment the target is 5-HT2B receptor (Homo sapiens, UniProt P41595). The experiment can be described thus: Calcium mobilization (Ca++ flux) assay, agonist mode, 5-HT2B. The protocol: as §1, with “Media was aspirated from cells and replaced with 20 μL Dye Loading Buffer. Cells were incubated for 30-60 minutes at 37° C. For agonist determination, cells were incubated with sample to induce response. After dye loading, cells were removed from the incubator and 10 μL HBSS/20 mM Hepes was added. 3× vehicle was included in the buffer when performing agonist dose curves to define the EC80 for subsequent antagonist assays. Cells were incubated for 30 minutes at room temperature in the dark to equilibrate plate temperature. Intermediate dilution of sample stocks was performed to generate 4× sample in assay buffer.” left out, “formula: […]” for “formula:”

The structures appear in SMILES notation.

T1 sequence (P28223 whole entry): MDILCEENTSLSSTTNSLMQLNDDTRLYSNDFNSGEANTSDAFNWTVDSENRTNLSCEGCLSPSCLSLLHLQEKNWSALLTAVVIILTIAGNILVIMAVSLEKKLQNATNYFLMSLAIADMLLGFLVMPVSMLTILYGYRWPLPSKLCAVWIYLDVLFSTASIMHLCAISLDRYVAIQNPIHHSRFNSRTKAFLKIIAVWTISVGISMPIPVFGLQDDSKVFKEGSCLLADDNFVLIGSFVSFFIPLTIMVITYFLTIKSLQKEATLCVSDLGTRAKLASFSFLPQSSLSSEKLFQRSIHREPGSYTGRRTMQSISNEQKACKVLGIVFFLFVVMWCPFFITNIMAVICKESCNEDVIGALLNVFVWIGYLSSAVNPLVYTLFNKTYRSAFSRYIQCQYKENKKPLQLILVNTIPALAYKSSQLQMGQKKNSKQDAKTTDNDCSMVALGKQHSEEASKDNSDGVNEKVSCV
Sequence of 5-HT2B receptor (P41595 whole entry): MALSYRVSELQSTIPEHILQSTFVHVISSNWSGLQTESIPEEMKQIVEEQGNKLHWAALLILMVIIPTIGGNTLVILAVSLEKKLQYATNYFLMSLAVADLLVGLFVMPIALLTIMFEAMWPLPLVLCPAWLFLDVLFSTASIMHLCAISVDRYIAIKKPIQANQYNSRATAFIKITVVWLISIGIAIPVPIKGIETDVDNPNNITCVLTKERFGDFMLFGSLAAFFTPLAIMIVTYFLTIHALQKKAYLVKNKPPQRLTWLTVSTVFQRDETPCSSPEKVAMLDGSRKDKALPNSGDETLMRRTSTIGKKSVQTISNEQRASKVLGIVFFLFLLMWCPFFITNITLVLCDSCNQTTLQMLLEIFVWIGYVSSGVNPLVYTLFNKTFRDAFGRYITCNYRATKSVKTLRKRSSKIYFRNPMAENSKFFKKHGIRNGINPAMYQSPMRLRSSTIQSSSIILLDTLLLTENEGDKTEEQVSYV

In the case of `COc1cc(S(C)(=N)=O)c(OC)cc1CCNCc1cc(C)cc(Cl)c1` (single isomer, unassigned) [Compound 2, (4-(2-((3-chloro-5-methylbenzyl)amino)ethyl)-2,5-dimethoxyphenyl)(imino)(methyl)-λ^6-sulfanone], the “5-HT2A receptor, Ca++ Flux % activation @30 μM” value on 5-HT2A receptor [1] was “NA/57%”.
What is called EC50 is the concentration at which the effect is half-maximal. Consider `COc1cc(S(C)(=N)=O)c(OC)cc1CCNCc1cc(C)cc(Cl)c1` (single isomer, unassigned) [Compound 3, (4-(2-((3-chloro-5-methylbenzyl)amino)ethyl)-2,5-dimethoxyphenyl)(imino)(methyl)-λ^6-sulfanone], for which the “5-HT2A receptor, Ca++ Flux % activation @30 μM” value at 5-HT2A receptor [1] is listed as 78%. Besides, the EC50 was 2.4 nM at 5-HT2A receptor [1], 13.6 nM at 5-HT2A receptor [2], 1490 nM on 5-HT2C receptor and over 1000 nM at 5-HT2B receptor.
In the case of `COc1cc(S(C)(=N)=O)c(OC)cc1CCNCc1cc(C)cc(Cl)c1` (stereo not shown) [Compound 1, (4-(2-((3-chloro-5-methylbenzyl)amino)ethyl)-2,5-dimethoxyphenyl)(imino)(methyl)-λ^6-sulfanone], on 5-HT2A receptor [1], the “5-HT2A receptor, Ca++ Flux % activation @30 μM” value is given as 102%. Moreover, the EC50 on 5-HT2A receptor [1] is 4.1 nM; on 5-HT2A receptor [2] it was 25 nM; at 5-HT2B receptor it was over 1000 nM.
`COc1cc(S(C)(=N)=O)c(OC)cc1CCNCc1cc(C)cc(Cl)n1` (stereo not shown) [Compound 4, (4-(2-(((6-chloro-4-methylpyridin-2-yl)methyl)amino)ethyl)-2,5-dimethoxyphenyl)(imino)(methyl)-λ^6-sulfanone]: the “5-HT2A receptor, Ca++ Flux % activation @30 μM” value on 5-HT2A receptor [1] is given as “NA/67%”.
Regarding `COc1cc(S(C)(=N)=O)c(OC)cc1CCNCc1ccccc1OC` (stereo not shown) [Compound 5, (2,5-dimethoxy-4-(2-((2-methoxybenzyl)amino)ethyl)phenyl)(imino) (methyl)-λ^6-sulfanone], the “5-HT2A receptor, Ca++ Flux % activation @30 μM” value at 5-HT2A receptor [1] stood at 111%. Besides, the values for the EC50 at 5-HT2A receptor [1], on 5-HT2A receptor [2] and on 5-HT2C receptor were 1.7 nM, 3.2 nM and 3.6 nM, respectively.
For `COc1cc(S(C)(=N)=O)c(OC)cc1CCNCc1ccccc1O` (stereo not shown) [Compound 6, (4-(2-((2-hydroxybenzyl)amino)ethyl)-2,5-dimethoxyphenyl)(imino)(methyl)-λ^6-sulfanone], the “5-HT2A receptor, Ca++ Flux % activation @30 μM” value on 5-HT2A receptor [1] is on record as “NA/ 82%”.
